Activity calls are given as the source filed them. No cut-off for these calls is given here.
Columns and labels:
[1] = test system: African green monkey; experiment: Toxicity in African green monkey assessed as effect on serum creatinine level at 25 mg/kg administered as iv infusion twice daily for 7 consecutive days measured on day 7 by LC-MS/MS analysis; type: organism-based; conditions: chlorocebus sabaeus, in vivo
[2] = test system: Yersinia pestis; experiment: Antibacterial activity against Yersinia pestis Colorado 92 infected in African green monkey assessed as improvement in survival of monkey at 6.25 to 25 mg/kg, iv administered within 6 hrs post onset of sustained fever as 30 mins infusion for 10 days; type: functional, organism-based; conditions: CO92
[3] = test system: Yersinia pestis; experiment: Antibacterial activity against Yersinia pestis Colorado 92 infected in African green monkey B6469 model assessed as bacterial burden in lung at 25 mg/kg, iv administered within 6 hrs post onset of sustained fever as 30 mins infusion for 5 days (reference value: 7.7 10^8CFU/g); type: functional, CO92
[4] = test system: Yersinia pestis; experiment: Antibacterial activity against Yersinia pestis Colorado 92 infected in African green monkey B6106 model assessed as bacterial burden in lung at 25 mg/kg, iv administered within 6 hrs post onset of sustained fever as 30 mins infusion for 5 days (reference value: 7.7 10^8CFU/g); type: functional, CO92
[5] = test system: Yersinia pestis; experiment: Antibacterial activity against Yersinia pestis Colorado 92 infected in African green monkey B6415 model assessed as bacterial burden in lung at 25 mg/kg, iv administered within 6 hrs post onset of sustained fever as 30 mins infusion for 5 days (reference value: 7.7 10^8CFU/g); type: functional, CO92
[6] = test system: Yersinia pestis; experiment: Antibacterial activity against Yersinia pestis Colorado 92 infected in African green monkey B6672 model assessed as bacterial burden in lung at 12.5 mg/kg, iv administered within 6 hrs post onset of sustained fever as 30 mins infusion for 5 days (reference value: 7.7 10^8CFU/g); type: functional, CO92
[7] = test system: Yersinia pestis; experiment: Antibacterial activity against Yersinia pestis Colorado 92 infected in African green monkey B6783 model assessed as bacterial burden in lung at 12.5 mg/kg, iv administered within 6 hrs post onset of sustained fever as 30 mins infusion for 5 days (reference value: 7.7 10^8CFU/g); type: functional, CO92
[8] = test system: Yersinia pestis; experiment: Antibacterial activity against Yersinia pestis Colorado 92 infected in African green monkey B6889 model assessed as bacterial burden in lung at 6.25 mg/kg, iv administered within 6 hrs post onset of sustained fever as 30 mins infusion for 5 days (reference value: 7.7 10^8CFU/g); type: functional, CO92
[9] = test system: Yersinia pestis; experiment: Antibacterial activity against Yersinia pestis Colorado 92 infected in African green monkey B6988 model assessed as bacterial burden in lung at 6.25 mg/kg, iv administered within 6 hrs post onset of sustained fever as 30 mins infusion for 5 days (reference value: 7.7 10^8CFU/g); type: functional, CO92
[10] = test system: Yersinia pestis; experiment: Antibacterial activity against Yersinia pestis Colorado 92 infected in African green monkey B6872 model assessed as bacterial burden in spleen at 25 mg/kg, iv administered within 6 hrs post onset of sustained fever as 30 mins infusion for 5 days (reference value: 1.6 10^9CFU/g); type: functional, organism-based; conditions: CO92
[11] = test system: Yersinia pestis; experiment: Antibacterial activity against Yersinia pestis Colorado 92 infected in African green monkey B6889 model assessed as bacterial burden in spleen at 6.25 mg/kg, iv administered within 6 hrs post onset of sustained fever as 30 mins infusion for 5 days (reference value: 1.6 10^9CFU/g); type: functional, CO92
[12] = test system: Yersinia pestis; experiment: Antibacterial activity against Yersinia pestis Colorado 92 infected in African green monkey B6106 model assessed as bacterial burden in liver at 25 mg/kg, iv administered within 6 hrs post onset of sustained fever as 30 mins infusion for 5 days (reference value: 5.2 10^8CFU/g); type: functional, CO92
[13] = test system: Yersinia pestis; experiment: Antibacterial activity against Yersinia pestis Colorado 92 infected in African green monkey B6873 model assessed as bacterial burden in kidney at 12.5 mg/kg, iv administered within 6 hrs post onset of sustained fever as 30 mins infusion for 5 days (reference value: 7.1 10^7CFU/g); type: functional, organism-based; conditions: CO92
[14] = test system: Yersinia pestis; experiment: Antibacterial activity against Yersinia pestis Colorado 92 infected in African green monkey B6861 model assessed as bacterial burden in kidney at 6.25 mg/kg, iv administered within 6 hrs post onset of sustained fever as 30 mins infusion for 5 days (reference value: 7.1 10^7CFU/g); type: functional, CO92
[15] = test system: Yersinia pestis; experiment: Antibacterial activity against Yersinia pestis Colorado 92 infected in African green monkey B6889 model assessed as bacterial burden in kidney at 6.25 mg/kg, iv administered within 6 hrs post onset of sustained fever as 30 mins infusion for 5 days (reference value: 7.1 10^7CFU/g); type: functional, CO92
[16] = test system: Yersinia pestis; experiment: Antibacterial activity against Yersinia pestis Colorado 92 infected in African green monkey C2149 model assessed as bacterial burden in heart at 6.25 mg/kg, iv administered within 6 hrs post onset of sustained fever as 30 mins infusion for 5 days (reference value: 2.6 10^7CFU/g); type: functional, CO92
[17] = test system: Yersinia pestis; experiment: Antibacterial activity against Yersinia pestis Colorado 92 infected in African green monkey C2083 model assessed as bacterial burden in brain at 12.5 mg/kg, iv administered within 6 hrs post onset of sustained fever as 30 mins infusion for 5 days (reference value: 1.9 10^6CFU/g); type: functional, CO92
[18] = test system: Yersinia pestis; experiment: Antibacterial activity against Yersinia pestis Colorado 92 infected in African green monkey C2083 model assessed as bacterial burden in blood at 12.5 mg/kg, iv administered within 6 hrs post onset of sustained fever as 30 mins infusion for 5 days (reference value: 1.2 10^7CFU/ml); type: functional, CO92
[19] = test system: African green monkey; experiment: Toxicity in African green monkey B6291 model infected with Yersinia pestis Colorado 92 assessed as blood urea nitrogen level at 25 mg/kg, iv administered within 6 hrs post onset of sustained fever as 30 mins infusion for 10 days (reference value: 24 mg/dl); type: organism-based; conditions: chlorocebus sabaeus, in vivo
[20] = test system: African green monkey; experiment: Toxicity in African green monkey B6408 model infected with Yersinia pestis Colorado 92 assessed as serum gamma glutamyl-transferase level at 25 mg/kg, iv administered within 6 hrs post onset of sustained fever as 30 mins infusion for 10 days (reference value: 53 IU/L); type: organism-based; conditions: chlorocebus sabaeus, in vivo
[21] = test system: African green monkey; experiment: Toxicity in African green monkey B5994 model infected with Yersinia pestis Colorado 92 assessed as serum alanine aminotransferase level at 25 mg/kg, iv administered within 6 hrs post onset of sustained fever as 30 mins infusion for 10 days (reference value: 62 IU/L); type: organism-based; conditions: chlorocebus sabaeus, in vivo
[22] = test system: African green monkey; experiment: Toxicity in African green monkey B6140 model infected with Yersinia pestis Colorado 92 assessed as serum alanine aminotransferase level at 25 mg/kg, iv administered within 6 hrs post onset of sustained fever as 30 mins infusion for 10 days (reference value: 180 IU/L); type: organism-based; conditions: chlorocebus sabaeus, in vivo
[23] = test system: African green monkey; experiment: Toxicity in African green monkey 8067 model infected with Yersinia pestis Colorado 92 assessed as serum alanine aminotransferase level at 25 mg/kg, iv administered within 6 hrs post onset of sustained fever as 30 mins infusion for 10 days (reference value: 45 IU/L); type: organism-based; conditions: chlorocebus sabaeus, in vivo
[24] = test system: African green monkey; experiment: Toxicity in African green monkey 7643 model infected with Yersinia pestis Colorado 92 assessed as serum alanine aminotransferase level at 25 mg/kg, iv administered within 6 hrs post onset of sustained fever as 30 mins infusion for 10 days (reference value: 53 IU/L); type: organism-based; conditions: chlorocebus sabaeus, in vivo
[25] = test system: African green monkey; experiment: Toxicity in African green monkey B6291 model infected with Yersinia pestis Colorado 92 assessed as serum lactate dehydrogenase level at 25 mg/kg, iv administered within 6 hrs post onset of sustained fever as 30 mins infusion for 10 days (reference value: 212 IU/L); type: organism-based; conditions: chlorocebus sabaeus, in vivo

CN[C@@H]1[C@@H](O)[C@@H](O[C@@H]2[C@@H](O)[C@H](O[C@H]3OC(CNCCO)=CC[C@H]3N)[C@@H](N)C[C@H]2NC(=O)[C@@H](O)CCN)OC[C@]1(C)O [PLAZOMICIN]
Activity [1]: 0.55 mg/dL | Activity [2]: Active | Activity [3]: 21 CFU/g | Activity [4]: 19 CFU/g | Activity [5]: 3.2 ×10⁹ CFU/g | Activity [6]: 9.2 ×10⁹ CFU/g | Activity [7]: 2.8 ×10⁹ CFU/g | Activity [8]: 2.2 ×10⁹ CFU/g | Activity [9]: 3.2 ×10⁸ CFU/g | Activity [10]: Below limit of detection | Activity [11]: 6.2 ×10⁶ CFU/g | Activity [12]: 95 CFU/g | Activity [13]: Below limit of detection | Activity [14]: 11 CFU/g | Activity [15]: 1.1 ×10⁶ CFU/g | Activity [16]: 9.7 ×10⁶ CFU/g | Activity [17]: 2.2 ×10⁶ CFU/g | Activity [18]: 24 CFU/ml | Activity [19]: 21 mg/dL | Activity [20]: 56 IU/L | Activity [21]: 46 IU/L | Activity [22]: 71 IU/L | Activity [23]: 50 IU/L | Activity [24]: 43 IU/L | Activity [25]: 259 IU/L

Reference: ChEMBL document CHEMBL3868595, “Plazomicin is effective in a non-human primate pneumonic plague model” (Bioorg Med Chem, 2016)
